Experimental data reported in US7648964B2, “Use of lacritin in promoting ocular cell survival” (University of Virginia Patent Foundation, priority 2004, dated 2010).
“Also recorded” adds a separate entry of the source.

B1: C-20: deletion of the 20 carboxy terminal amino acids of mature lacritin (SEQ ID NO:10) (protein)
chain: EDASSDSTGADPAQEAGTSKPNEEISGPAEPASPPETTTTAQETSAAAVQGTAKVTSSRQELNPLKSIVEKSILLTEQALAKAGKGMHGGVPGGKQFIE
modifications: homo sapiens
B2: C-10: deletion of the 10 carboxy terminal amino acids of mature lacritin (SEQ ID NO:10) (protein)
chain: EDASSDSTGADPAQEAGTSKPNEEISGPAEPASPPETTTTAQETSAAAVQGTAKVTSSRQELNPLKSIVEKSILLTEQALAKAGKGMHGGVPGGKQFIENGSEFAQKLL
modifications: homo sapiens
B3: C-15: deletion of the 15 carboxy terminal amino acids of mature lacritin (SEQ ID NO:10) (protein)
chain: EDASSDSTGADPAQEAGTSKPNEEISGPAEPASPPETTTTAQETSAAAVQGTAKVTSSRQELNPLKSIVEKSILLTEQALAKAGKGMHGGVPGGKQFIENGSEF
modifications: homo sapiens

Legend:
PKCα [1] = test: PKCα translocation in HSG cells (immunofluorescence, fractionation); type: cell-based, human; details: for effect on lacritin-dependent PKCα translocation: pertussis toxin 100 ng/ml, Go 6976, U73122, U73343, cyclosporine 1 μM, nifedipine 10 μM
Text: In order to dissect the molecular pathways leading to the cell survival by lacritin, protein kinases and transcriptional factors were studied by Western blotting and immunofluorescence microscopy.
Images were acquired at 2-3 s intervals using LaserSharp2000 software (Bio-Rad) and store on disc for later analysis.

PKCα [2] = test: Phospho-PKCα blot of HSG cell lysates; type: cell-based, human; details: for effect on lacritin-dependent PKCα dephosphorylation: pertussis toxin 100 ng/ml, Go 6976, U73122, U73343 1 μM
Description: (§1) For phosphotyrosine blotting and mitogenesis assays, cells in serum-containing media were seeded overnight in 24-well plates at a density of 0.5×10^5 cells/mm^2 corresponding to 20-30% confluency after cell attachment, incubated in serum-free media without supplements for 24 h (phosphotyrosine) or washed with serum-free media without supplements three times (mitogenesis) and incubated with lacritin (1-1000 nM), or positive controls EGF (1.6 nM) and 10% fetal bovine serum, or negative controls bovine serum albumin or no additive in serum-free media without supplements for the indicated times (phosphotyrosine) or 30 h (mitogenesis). For phosphotyrosine assays, cells were extracted in 1% NP40 containing sodium vanadate (2 mg/ml), DTT (5 mg/ml), protease inhibitors, 50 mM HEPES, 100 mM NaCl, and 2 mM EDTA; then separated by 10% SDS PAGE, transferred and blotted. The following antibodies (Cell Signaling Technology, Beverly Mass.) were tested: antiphosphotyrosine antibody (P-Tyr-100), anti-phospho-PKC αβII, anti-PKCα, anti-phospho-PKCδ, anti-phospho-PKC (pan), anti-p44/42 MAPK, anti-phospho-Raf, anti-phospho-SAPK/JNK, anti-phospho-p38 Map kinase, anti-phospho-Raf, anti-phospho-Akt, anti-phospho-CaMKII, anti-phospho-MARCKS, or anti-tubulin (loading control). After washing, bound antibodies were detected with peroxidase-labeled secondary antibody and ECL. With the exception of at least nine proteins in the P-Tyr-100 blot (FIG. 1), none of the effectors tested above appeared to be phospho-activated during lacritin signaling (not shown). For mitogenesis (Hussaini et al., '00), [^3H]-thymidine (2 mCi/ml) was added for the next 6 h. Incorporation was stopped with ice-cold phosphate buffered saline and followed by addition of cold and then room temperature trichloracetic acid (10%) for 10 min each, washing of cells with phosphate buffered saline, solubilization with 1 N sodium hydroxide, neutralization with 1 N hydrochloric acid, addition of scintillation fluid and then quantitation in a scintillation counter. To deplete PKCα in HSG cells, a pool of four PKCα-specific siRNAs (100 nM) were transfected via LipofectAMINE 2000 in Opti-MEMI Reduced Serum Medium (Invitrogen, Grand Island N.Y.) without serum and antibiotics according to manufacturer's instructions. Each of the four siRNAs was also individually transfected. In negative controls, cells were transfected with a pool of four lamin-specific siRNAs (Upstate LLC, Charlottesville Va.; Dharmacon Inc, Lafayette Colo.). Seventy-two hours post-transfection, mitogenesis was assessed by co-addition of 10 […] lacritin and [^3H]-thymidine (2 mCi/ml) (Amersham, Piscataway N.J.) for 24 hrs. PKCα depletion was confirmed by Western blotting.
We imaged PKCα in cells 15 min after treatment (FIG. 8). Nonmitogenic construct/fragment C-25 (10 nM) had no effect, leaving PKCa diffusely distributed throughout the cytoplasm. […] The phosphorylation state of PKCα influences its translocation site. Hyperphosphorylated PKCα becomes associated with the plasma membrane whereas hypophosphorylated or dephosphorylated PKCα is known to translocate to the perinuclear Golgi region. To determine if the latter is true and if so over what time course, we treated cells with lacritin, N-24 and C-25, and then blotted cell lysates for phospho-PKC ? (FIG. 8B). 10 nM lacritin promotes PKC ? dephosphorylation within 1 min of addition. This form is sustained for at least 15 min, but by 30 min has returned to baseline phosphorylation. Dephosphorylation triggered by increasing molar levels of lacritin or N-24 mirrored the proliferation response with optimal dephosphorylation at 10 nM. Non-mitogenic C-25 had no effect, whereas positive control 4β-phorbol 12-myristate 13-acetate-promoted hyperphosphorylation.

NFATC1 = NFATC1 translocation in HSG cells (immunofluorescence); type: cell-based, human; details: cyclosporine 1 μM; nifedipine 10 μM
Text: In order to dissect the molecular pathways leading to the cell survival by lacritin, protein kinases and transcriptional factors were studied by Western blotting and immunofluorescence microscopy. […] On the other hand, there were increased activities of transcriptional factors such as nuclear factor of activated T-cells (NFAT) and NF-kappaB. In FIG. 4, translocation of PKC alpha and NFAT was detected by immunofluorescence coupled with confocal microscopic imaging. In resting HSG cells (left three images), PKC alpha distributes mainly in cytosol and membrane. Similarly, NFATc1 was also found to localize largely in cytosol. Cellular co-location of PKC alpha and NFATc1 is apparent upon merging the two immunofluorescent images, as the merged cy3 and FITC labels produce distinctive yellow color.
Images were acquired at 2-3 s intervals using LaserSharp2000 software (Bio-Rad) and store on disc for later analysis. For translocation assays, HSG cells […] phorbol 12-myristate 13-acetate, […], then washed with phosphate-buffered saline, formaldehyde-fixed, blocked with phosphate-buffered saline containing 1% bovine serum albumin and 10% goat serum, incubated with anti-PKCα (C-20) or anti-NFATC1 (mab 7A6) (both from Santa Cruz Biotechnology Inc.; Santa Cruz, Calif.) followed by secondary Cy3-, FITC- or Alexa488-labeled antibodies and confocal microscopic visualization (Bio-Rad Radiance2100).

HSG cells = test: Calcium mobilization imaging in HSG cells (Fluo-4); type: cell-based, human; details: for effect on lacritin-stimulated calcium mobilization: preincubation: pertussis toxin 100 ng/ml, or siRNA
Description: Cells were seeded at 1.4×10^4 HSG cells/mm^2 or 0.7×10^4 HSG cells/mm^2 on Matrigel-coated (100 μg/ml; BD Biosciences; San Diego Calif.) coverslips to respectively achieve 70-80% confluency after overnight or 48 h growth in 6-well plates containing phenol red-free Dulbecco's modified Eagle's medium with 10% fetal calf serum.
Other cells were incubated (0.7×10^4HSG cells/mm^2 overnight plating) with 100 ng/ml pertussis toxin (Calbiochem; San Diego Calif.) in phenol red-free Dulbecco's modified Eagle's medium with 10% fetal calf serum; or vehicle alone). Cells were washed with calcium-free/phenol red-free Hanks basic salt solution, 20 mM N-2-hydroxyethylpiperazine-N′-2-ethane sulfonic acid and then incubated for 1 h at room temperature with the same solution containing fluo-4 μM at 4 μM (FluoroPure grade [Molecular Probes; Eugene Oreg.] dissolved in DMSO plus 20% Pluronic F-127). Cells were washed three times for 60 min at room temperature with calcium-free/phenol red-free Hanks basic salt solution with 5 mM Ca^2+ or 5 mM EGTA. Temperature was stabilized for 5 min at 37° C. coverslips were placed on the stage of a TE-200 epifluorescent microscope (Bio-Rad Radiance2100 confocal/multiphoton system using Plan Fluor 60×NA 1.4 Oil IR objective lens [Bio-Rad, Hercules Calif.] as part of the W. M. Keck Center for Cellular Imaging, University of Virginia), subjected to a 488 nm argon laser light source with emission at 528 nm. Baseline monitoring was followed by addition of lacritin or deletion fragments in phenol red-free Hanks basic salt solution.

[3] = tested on: human salivary ductal (HSG) cells; test: 3H-thymidine uptake mitogenesis assay; type: cell-based; details: 10 nM; compared to intact lacritin
Description: as §1

caspase-8 = test: Caspase-8 activity in human corneal epithelial cells treated with TNF-α; type: cell-based
Description: FIG. 12 graphically illustrates the ability of lacritin polypeptides to block TNFα induced caspase-8 activity in human corneal epithelial cells. The ordinate represents relative fluorescence units. White bars indicate 1 hour and diagonally-hatched bars indicate 6 hours.
Lacritin-induced proliferation and calcium signaling was studied in the human corneal epithelial (HCE) cell line. HCE cells were grown at 37° C. in DMEM F/12 supplemented with 10% FBS and 50 μg/ml gentamicin. Each experiment was done in a dose- and time-dependent manner using TNF-α (5-20 ng/ml) and lacritin (1-10 nM). Cell viability was measured spectrophotometrically at an absorbance of 570 nm using the MTT assay. Caspase-8 activity was detected fluorometrically by measuring cleavage of the fluorogenic substrate IETD-pNA at an excitation wavelength of 405 nm. Lacritin-induced cell proliferation was studied by H3-thymidine incorporation and via fluorescence-based detection of PKC, PLC and cAMP. Calcium signaling was detected by confocal microscopy of Fluo-4 loaded cells.

caspase-9 = test: Caspase-9 activity in human corneal epithelial cells treated with TNF-α; type: cell-based; details: lacritin polypeptides 10 nM
Description: FIG. 13 graphically illustrates the ability of lacritin polypeptides (10 nM) to block TNFα induced caspase-9 activity in human corneal epithelial cells. The ordinate represents relative fluorescence units. White bars indicate 6 hours and diagonally-hatched bars indicate 9 hours.
Caspase-9 activity was measured in cells treated with various combinations of TNF-α, fragments of lacritin, and the PKC inhibitor Go6976. […] The PKC-α inhibitor Go6976 and C-25 fail to block this increase of the downstream initiator caspase-9.

Molecule | effect on lacritin-dependent NFATC1 translocation (NFATC1) | effect on lacritin-dependent PKCα translocation (PKCα [1]) | mitogenic activity of deletion constructs [3] | other results
CCCCCCCCCCCCCC(=O)O[C@@H]1[C@@H](C)[C@@]2(O)[C@@H](C=C(CO)C[C@]3(O)C(=O)C(C)=C[C@@H]23)[C@@H]2C(C)(C)[C@]12OC(C)=O [4β-phorbol 12-myristate 13-acetate, reference compound] | – | – | – | PKCα translocation (PKCα [1]; 15 min after treatment): concentrated PKCα solely in the plasma membrane; effect on PKCα phosphorylation (PKCα [2]): hyperphosphorylation
O=C(O)CN(CCOCCOCCN(CC(=O)O)CC(=O)O)CC(=O)O [EGTA] | non-inhibitory | – | – | –
COc1ccc2c(c1)CC[C@@H]1[C@@H]2CC[C@]2(C)[C@@H](NCCCCCCN3C(=O)C=CC3=O)CC[C@@H]12 [U73122] | inhibited | inhibited | – | effect on carbachol-stimulated calcium mobilization (HSG cells; U73122 1 μM, Go 6976 1 μM, even at 10 μM): inhibited; effect on lacritin-stimulated calcium mobilization (HSG cells; U73122 1 μM, Go 6976 1 μM): inhibited; effect on lacritin-dependent PKCα dephosphorylation (PKCα [2]): inhibited
COc1ccc2c(c1)CC[C@@H]1[C@@H]2CC[C@]2(C)[C@@H](NCCCCCCN3C(=O)CCC3=O)CC[C@@H]12 [U73343] | – | full translocation and dephosphorylation | – | effect on lacritin-dependent PKCα dephosphorylation (PKCα [2]): full translocation and dephosphorylation
C[N+](C)(C)CCOC(N)=O [carbachol] | – | – | – | calcium mobilization after pertussis toxin preincubation (HSG cells; positive control replacing lacritin): full calcium mobilization
[Gd] [gadolinium] | non-inhibitory | – | – | –
C/C=C(/C)C(=O)O[C@H]1C(C)=C2[C@H]([C@@H]1OC(=O)CCCCCCC)[C@@](C)(OC(C)=O)C[C@H](OC(=O)CCC)[C@@]1(O)[C@H]2OC(=O)[C@@]1(C)O [thapsigargin] | inhibited | inhibited | – | –
C-59: deletion of the 59 carboxy terminal amino acids of mature lacritin (SEQ ID NO:10) (EDASSDSTGADPAQEAGTSKPNEEISGPAEPASPPETTTTAQETSAAAVQGTAKVTSSRQ; homo sapiens) | – | – | inactive | –
pertussis toxin | inhibited | inhibited | – | effect on lacritin-stimulated calcium mobilization (HSG cells; U73122 1 μM, Go 6976 1 μM): completely inhibited; effect on lacritin-dependent PKCα dephosphorylation (PKCα [2]): inhibited
B1 | – | – | completely abrogated activity; also recorded: inactive | –
B2 | – | – | active | effect on TNF-α-induced caspase-8 activity (caspase-8): blocked; effect on TNF-α-induced caspase-9 activity (caspase-9): blocked
B3 | – | – | diminished; also recorded: partially active | –
